Reference: PubChem BioAssay AID248 (DTP/NCI, 2004)
Inconclusive results and toxic doses are left out. Cut-off read from the data, not from the text of the source: active = T/C of 150% or more; inactive = T/C below 125%.

System: L1210 leukemia ip in BDF1 mice, survival T/C
Test: NCI In Vivo Anticancer Drug Screen. Data for tumor model L1210 Leukemia (intraperitoneal) in B6D2F1 (BDF1) mice
Conditions: endpoint: mean survival time, higher = longer survival
Summary of the method: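 Tumor cells were implanted, animals were treated, and survival was followed. The result divides the treated measurement by the vehicle-control measurement.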

[1] = dose: 50.0 mg/kg/injection, schedule: Q01DX009 (ip), vehicle: saline with Tween-80
[2] = dose: 100.0 mg/kg/injection, schedule: Q01DX009 (ip), vehicle: saline with Tween-80
[3] = dose: 200.0 mg/kg/injection, schedule: Q01DX009 (ip), vehicle: saline with Tween-80
[4] = dose: 100.0 mg/kg/injection, schedule: Q01DX009 (ip), vehicle: Klucel (hydroxypropylcellulose) (HPC)
[5] = dose: 100.0 mg/kg/injection, schedule: Q04DX003 (ip), vehicle: Klucel (hydroxypropylcellulose) (HPC)
[6] = dose: 200.0 mg/kg/injection, schedule: Q01DX009 (ip), vehicle: Klucel (hydroxypropylcellulose) (HPC)
[7] = dose: 200.0 mg/kg/injection, schedule: Q04DX003 (ip), vehicle: Klucel (hydroxypropylcellulose) (HPC)
[8] = dose: 400.0 mg/kg/injection, schedule: Q01DX009 (ip), vehicle: Klucel (hydroxypropylcellulose) (HPC)
[9] = dose: 400.0 mg/kg/injection, schedule: Q04DX003 (ip), vehicle: Klucel (hydroxypropylcellulose) (HPC)
[10] = dose: 100.0 mg/kg/injection, schedule: Q04DX003 (ip), vehicle: saline with Tween-80
[11] = dose: 200.0 mg/kg/injection, schedule: Q04DX003 (ip), vehicle: saline with Tween-80
[12] = dose: 400.0 mg/kg/injection, schedule: Q04DX003 (ip), vehicle: saline with Tween-80
[13] = dose: 100.0 mg/kg/injection, schedule: Q01DX001 (ip), vehicle: carboxymethylcellulose (CMC)
[14] = dose: 200.0 mg/kg/injection, schedule: Q01DX001 (ip), vehicle: carboxymethylcellulose (CMC)
[15] = dose: 100.0 mg/kg/injection, schedule: Q01DX001 (ip), vehicle: Klucel (hydroxypropylcellulose) (HPC)
[16] = dose: 200.0 mg/kg/injection, schedule: Q01DX001 (ip), vehicle: Klucel (hydroxypropylcellulose) (HPC)
[17] = dose: 400.0 mg/kg/injection, schedule: Q01DX001 (ip), vehicle: Klucel (hydroxypropylcellulose) (HPC)
[18] = dose: 75.0 mg/kg/injection, schedule: Q01DX001 (ip), vehicle: saline
[19] = dose: 75.0 mg/kg/injection, schedule: Q04DX003 (ip), vehicle: saline
[20] = dose: 150.0 mg/kg/injection, schedule: Q01DX001 (ip), vehicle: saline
[21] = dose: 150.0 mg/kg/injection, schedule: Q04DX003 (ip), vehicle: saline
[22] = dose: 300.0 mg/kg/injection, schedule: Q01DX001 (ip), vehicle: saline
[23] = dose: 300.0 mg/kg/injection, schedule: Q04DX003 (ip), vehicle: saline

Measured: T/C

CS(=O)(=O)N(CC(=O)O)Cc1ccccc1
inactive: dose: 50.0 mg/kg/injection, schedule: Q01DX009 (ip), vehicle: saline 101 % of control | dose: 50.0 mg/kg/injection, schedule: Q01DX009 (ip), vehicle: sodium bicarbonate 116 % of control | dose: 100.0 mg/kg/injection, schedule: Q01DX009 (ip), vehicle: saline 101 % of control | dose: 100.0 mg/kg/injection, schedule: Q01DX009 (ip), vehicle: sodium bicarbonate 106 % of control | dose: 100.0 mg/kg/injection, schedule: Q04DX003 (ip), vehicle: sodium bicarbonate 124 % of control | dose: 200.0 mg/kg/injection, schedule: Q01DX009 (ip), vehicle: saline 95 % of control | dose: 200.0 mg/kg/injection, schedule: Q01DX009 (ip), vehicle: sodium bicarbonate 101 % of control | dose: 200.0 mg/kg/injection, schedule: Q04DX003 (ip), vehicle: sodium bicarbonate 91 % of control | dose: 400.0 mg/kg/injection, schedule: Q01DX009 (ip), vehicle: saline 97 % of control | dose: 400.0 mg/kg/injection, schedule: Q01DX009 (ip), vehicle: sodium bicarbonate 104 % of control | dose: 400.0 mg/kg/injection, schedule: Q04DX003 (ip), vehicle: sodium bicarbonate 91 % of control

CCN(CC)CCCC(C)NC(=O)c1ccc(Cl)nc1 (configuration not stated)
inactive: [1] 105 % of control | [2] 103 % of control | [3] 95 % of control

CCn1cc(C(=O)O)c(=O)c2ccc(-c3ccncc3)cc21
inactive: [4] 98 % of control | [5] 91 % of control | [6] 101 % of control | [7] 91 % of control | [8] 102 % of control | [9] 89 % of control

O=C1OC(c2ccc(Cl)cc2)=N/C1=C\c1ccccc1
inactive: [10] 100 % of control | [11] 90 % of control | [12] 91 % of control

C/C=C/C1=C(Cl)C(=O)[C@@H](Cl)[C@@]1(O)C(=O)OC
inactive: dose: 1.25 mg/kg/injection, schedule: Q01DX009 (ip), vehicle: saline 101 % of control | dose: 2.5 mg/kg/injection, schedule: Q01DX009 (ip), vehicle: saline 97 % of control | dose: 2.5 mg/kg/injection, schedule: Q04DX003 (ip), vehicle: saline 101 % of control | dose: 5.0 mg/kg/injection, schedule: Q01DX009 (ip), vehicle: saline 103 % of control | dose: 5.0 mg/kg/injection, schedule: Q04DX003 (ip), vehicle: saline 95 % of control | dose: 10.0 mg/kg/injection, schedule: Q01DX001 (ip), vehicle: saline 94 % of control | dose: 10.0 mg/kg/injection, schedule: Q04DX003 (ip), vehicle: saline 100 % of control

c1ccc(-c2cc3c(cc2-c2ccccc2)C(c2ccccc2)(c2ccccc2)c2nc4ccccc4nc2-3)cc1
inactive: [10] 95 % of control | [11] 93 % of control | [12] 91 % of control

Nc1nc(N)c(N=Nc2ccc([As](=O)(O)O)c(O)c2)c(=O)[nH]1
inactive: dose: 100.0 mg/kg/injection, schedule: Q01DX001 (ip), vehicle: saline 91 % of control | dose: 200.0 mg/kg/injection, schedule: Q01DX001 (ip), vehicle: saline 93 % of control | dose: 400.0 mg/kg/injection, schedule: Q01DX001 (ip), vehicle: saline 93 % of control

Nc1nc(N)c(-c2ccc(Cl)c(Cl)c2)c(CCc2ccc(NS(=O)(=O)c3cccc(S(=O)(=O)F)c3)cc2)n1
inactive: dose: 100.0 mg/kg/injection, schedule: Q01DX001 (ip), vehicle: saline with Tween-80 98 % of control | dose: 200.0 mg/kg/injection, schedule: Q01DX001 (ip), vehicle: saline with Tween-80 95 % of control | dose: 400.0 mg/kg/injection, schedule: Q01DX001 (ip), vehicle: saline with Tween-80 87 % of control

CC(=O)OC1CCC2(C)C3=C(CCC2C1(C)C)C1CCC(C(C)CCC=C(C)C)C1(C)CC3 (configuration not stated)
inactive: [5] 96 % of control | [7] 96 % of control

O=S(=O)(Nc1nccs1)c1ccc(NN=Nc2c(Cl)cc(Cl)cc2Cl)cc1
inactive: [4] 96 % of control | [6] 96 % of control | [8] 97 % of control

CNCCOc1ccccc1
inactive: [1] 105 % of control | [2] 101 % of control | [10] 107 % of control | [11] 93 % of control

Nc1c(Cl)ncn2[nH]c(=O)nc12
inactive: [13] 96 % of control | [14] 100 % of control

OCCCN=Cc1ccccc1O.OCCCN=Cc1ccccc1O.[Cu]
inactive: dose: 9.5 mg/kg/injection, schedule: Q01DX001 (ip), vehicle: other 92 % of control | dose: 19.0 mg/kg/injection, schedule: Q01DX001 (ip), vehicle: other 97 % of control | dose: 38.0 mg/kg/injection, schedule: Q01DX001 (ip), vehicle: other 100 % of control | dose: 75.0 mg/kg/injection, schedule: Q01DX001 (ip), vehicle: other 114 % of control

CCCCCCCCOc1ccc(C2=NN(c3ccccc3)C(=O)C2)cc1
inactive: dose: 50.0 mg/kg/injection, schedule: Q04DX003 (ip), vehicle: Klucel (hydroxypropylcellulose) (HPC) 110 % of control | [15] 96 % of control | [5] 90 % of control | [16] 100 % of control | [7] 100 % of control | [17] 102 % of control

O=C1C=C(Nc2cccc(O)c2)c2ccccc2C1=O
inactive: dose: 100.0 mg/kg/injection, schedule: Q04DX003 (ip), vehicle: saline 94 % of control | dose: 200.0 mg/kg/injection, schedule: Q04DX003 (ip), vehicle: saline 97 % of control | dose: 400.0 mg/kg/injection, schedule: Q04DX003 (ip), vehicle: saline 89 % of control

[Cl][Hg][c]1ccccc1N=Nc1ccccc1
inactive: dose: 3.0 mg/kg/injection, schedule: Q01DX009 (ip), vehicle: saline with Tween-80 90 % of control | dose: 6.0 mg/kg/injection, schedule: Q01DX009 (ip), vehicle: saline with Tween-80 101 % of control | dose: 12.0 mg/kg/injection, schedule: Q01DX009 (ip), vehicle: saline with Tween-80 98 % of control | dose: 12.5 mg/kg/injection, schedule: Q01DX009 (ip), vehicle: saline with Tween-80 100 % of control

CC12C=CC3(CCC4C(C)(C)C(=O)C(O)=CC4(C)C3CC1=O)C2 (configuration not stated)
inactive: [4] 103 % of control | [5] 95 % of control | [6] 94 % of control | [7] 98 % of control | [8] 94 % of control | [9] 98 % of control

CS(=O)(=O)Oc1c(Cl)cc(Cl)cc1Sc1cc(Cl)cc(Cl)c1OS(C)(=O)=O
inactive: [13] 95 % of control | [14] 104 % of control | dose: 400.0 mg/kg/injection, schedule: Q01DX001 (ip), vehicle: carboxymethylcellulose (CMC) 101 % of control

COC(=O)c1ccc([N+](=O)[O-])c(OC)c1
inactive: [18] 91 % of control | [19] 94 % of control | [20] 91 % of control | [21] 108 % of control | [22] 93 % of control | [23] 101 % of control

CC1(C)OC2C(C(=O)N(CCO)CCO)OC(n3cnc4c(N)ncnc43)C2O1 (configuration not stated)
inactive: [18] 102 % of control | [19] 106 % of control | [20] 104 % of control | [21] 106 % of control | [22] 101 % of control | [23] 107 % of control

O=C(O)/C(=C\C#Cc1ccccc1)c1ccccc1
inactive: [5] 94 % of control | [7] 100 % of control

C=CCNC(=O)CS(=O)(=O)c1ccc(C)cc1
inactive: [10] 94 % of control | [11] 100 % of control | [12] 96 % of control

CC(=O)NNCc1ccccc1
inactive: [15] 103 % of control | [16] 103 % of control | [17] 97 % of control

O=S(=O)(NC1CCCC2C=CC=CC21)c1ccccc1 (configuration not stated)
inactive: [2] 96 % of control | [10] 93 % of control | [3] 102 % of control | [11] 92 % of control | dose: 400.0 mg/kg/injection, schedule: Q01DX009 (ip), vehicle: saline with Tween-80 88 % of control | [12] 95 % of control
